{"source": "patent US20260094266A1", "about": "“DIGITAL SYSTEM FOR CELL ASSAYS USING LABEL FREE MICROSCOPY” (NANOLIVE SA, priority 2022, published 2026)", "type_in_all_cases": "cell-based", "key": {"[1]": {"tested_on": "3T3-L1-derived preadipocyte cells", "assay": "LCDA quantification of Ebastin-induced cell death in 3T3-L1-derived preadipocytes", "settings": "20 μM Ebastin added 1 hour before acquisition; versus untreated cells", "protocol": "It was finally concluded by quantifying the capacity of another drug to kill cells, Ebastin, to validate the simplest of the uses of the LCDA. 3T3-L1-derived preadipocyte cells were seeded in 35 mm dish at ˜30,000 cells/ml and let to grow for 48 h in DMEM supplemented with 10% FBS."}, "[2]": {"tested_on": "HeLa cells", "assay": "LCDA quantification of Ebastine-induced cell death in HeLa cells (FIG. 7)", "settings": "50 uM Ebastin, treated right before acquisition; versus control well; 5 h post treatment", "from_the_text": "FIG. 7: Application of LCDA to quantify Ebastine-induced cell death—HeLa cells grown in two wells were used as (A) control and (B) treatment experiment."}, "[3]": {"tested_on": "3T3-L1-derived preadipocyte cells", "assay": "Live cell death assay (LCDA) benchmarked with live fluorescent cell death kit, camptothecin treatment", "settings": "2.5 μM camptothecin added 4 hours before acquisition; imaged for 17.5 hours; versus without camptothecin", "from_the_text": "To validate the performance of the LCDA, the invention method was benchmarked with a state-of-the-art live fluorescent kit (FIG. 6). 3t3-derived preadipocytes were imaged on an optical diffraction tomography system combining RI recording and epifluorescence, with and without addition of camptothecin, a proapoptotic drug (FIG. 6). Annexin V-Cy5 and Nuclear Green DCS1 were used as fluorescent markers to detect apoptosis and necrosis, respectively. The RI images of the kit-stained cells were also analyzed with the LCDA. The cell death information provided by the fluorescent signals contained within the RI segmentation masks was then compared, with the LCDA results (FIG. 6, E and F).\n3T3-L1-derived preadipocyte cells were seeded in a 35 mm dish at ˜30,000 cells/ml and let to grow for 48 h in DMEM supplemented with 10% FBS. 4 hours before starting the acquisition, the cells were treated with 2.5 μM camptothecin (abcam—ab120115) to induce apoptosis. 10 minutes before starting the acquisition, Annexin V-Cy5 and Nuclear Green DCS1 (abcam—ab14147, ab138905) were added to the medium, following the supplier's protocol. […]\nRI images were then analyzed and plotted with the LCDA module's features. Fluorescence was quantified by measuring the mean intensity in each cell using RI segmentations using an independent image analysis tool. […]"}}}
{"smiles": "CC(C)(C)c1ccc(C(=O)CCCN2CCC(OC(c3ccccc3)c3ccccc3)CC2)cc1", "note": "[Ebastin]", "values": [{"measurement": "induced cell death over time (LCDA)", "setting": "[1]", "value": "treated cells show a very clear curve of induced cell death"}, {"measurement": "number of dead cells predicted over time (cell death rate)", "setting": "[2]", "value": "higher cell death rate in the treated condition already at 5 h post treatment"}]}
{"smiles": "CC[C@@]1(O)C(=O)OCc2c1cc1n(c2=O)Cc2cc3ccccc3nc2-1", "note": "[camptothecin]", "values": [{"measurement": "death of cells (LCDA and Annexin V-Cy5 / Nuclear Green DCS1 fluorescence)", "setting": "[3]", "value": "accelerates greatly the death of cells and results in the whole cell population dying by the end of the experiment"}]}
